{"source": "patent US7851459B2", "about": "“Methods for diluting water-stabilized antimicrobial organosilane compositions” (Vitec Speciality Chemicals Limited, priority 2007, dated 2010)", "origin": "cited, not measured here", "conditions": "mixture of organosilane and water"}
{"compound": "CCCCCCCCCCCCCCCCCC[N+](C)(C)CCC[Si](OC)(OC)OC.[Cl-]", "note": "[3-(trimethoxysilyl)propyl-dimethyloctadecyl ammonium chloride]", "values": [{"measurement": "time until mixture with water begins to lose effectiveness", "result": "four to eight"}]}
